Results on 13 compounds are retold here after ChEMBL document CHEMBL1201862, “PubChem BioAssay data set” (2004).

Each structure is given as a SMILES string. Activity calls are given as the source filed them.

Assay [1] can be described thus: NIH-3T3 fibroblast cytotoxicity, dose response, cytotoxicity control, cell-based, fluorescence, Alamar Blue, secondary assay (AID 2327).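 Also: NIH-3T3 mouse fibroblasts cultured with fluconazole at 8 µg/mL.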 Format: functional.
Assay [2] has as its target T1, Aminopeptidase N (Plasmodium falciparum FcB1/Columbia, UniProt O96935).
T1 sequence (O96935 whole entry): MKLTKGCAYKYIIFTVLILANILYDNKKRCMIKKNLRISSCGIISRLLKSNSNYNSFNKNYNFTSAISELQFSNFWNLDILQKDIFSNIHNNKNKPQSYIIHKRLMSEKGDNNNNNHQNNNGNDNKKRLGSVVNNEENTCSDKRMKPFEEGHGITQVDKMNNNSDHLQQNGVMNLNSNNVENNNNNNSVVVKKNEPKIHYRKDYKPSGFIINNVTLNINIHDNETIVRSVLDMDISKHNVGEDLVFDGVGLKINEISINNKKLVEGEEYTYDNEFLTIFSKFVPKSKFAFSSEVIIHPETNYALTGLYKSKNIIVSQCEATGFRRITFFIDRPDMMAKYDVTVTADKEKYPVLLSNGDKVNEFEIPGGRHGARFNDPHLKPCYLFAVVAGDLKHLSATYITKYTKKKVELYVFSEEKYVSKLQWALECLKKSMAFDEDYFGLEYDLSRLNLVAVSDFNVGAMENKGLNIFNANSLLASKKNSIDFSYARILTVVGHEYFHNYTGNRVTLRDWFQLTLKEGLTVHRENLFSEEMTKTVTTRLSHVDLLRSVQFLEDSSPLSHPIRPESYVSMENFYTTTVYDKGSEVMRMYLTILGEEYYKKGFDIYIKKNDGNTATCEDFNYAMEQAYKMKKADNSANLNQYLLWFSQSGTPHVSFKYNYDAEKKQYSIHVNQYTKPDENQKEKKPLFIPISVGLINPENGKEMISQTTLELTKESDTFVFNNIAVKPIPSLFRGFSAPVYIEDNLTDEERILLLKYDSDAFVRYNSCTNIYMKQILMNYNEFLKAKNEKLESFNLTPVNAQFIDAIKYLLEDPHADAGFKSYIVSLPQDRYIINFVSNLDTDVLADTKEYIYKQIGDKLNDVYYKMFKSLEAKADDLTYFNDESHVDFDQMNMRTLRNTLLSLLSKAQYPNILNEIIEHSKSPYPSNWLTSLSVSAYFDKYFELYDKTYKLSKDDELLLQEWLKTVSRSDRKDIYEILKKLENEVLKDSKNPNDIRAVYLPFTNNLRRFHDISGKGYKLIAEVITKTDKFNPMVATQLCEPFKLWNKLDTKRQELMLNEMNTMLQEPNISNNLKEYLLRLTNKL
Description: P. falciparum M1AAP inhibitors, biochemical, fluorogenic H-Leu-NHMec substrate, 1536-well (AID 1445). Further details: species or system Plasmodium falciparum 3D7, 3D7.

For assay [3], the target named is Genome polyprotein (dengue virus type 2, UniProt P29990). Description: Dengue-2 NS5 methyltransferase inhibitors, primary screen, biochemical, confirmation dose response (AID 588689). Format: functional.
Assay [4] has as its target Induced myeloid leukemia cell differentiation protein Mcl-1 (Homo sapiens, UniProt Q07820). Format: functional.
The target of assay [5] is Nonstructural protein 1 (Influenza A virus, UniProt Q194T2). Format: functional, Influenza A virus (A/California/07/2009(H1N1)).
The target of assay [6] is T2, Leucine aminopeptidase (Plasmodium falciparum 3D7, UniProt Q8IL11).
T2 sequence (Q8IL11 whole entry): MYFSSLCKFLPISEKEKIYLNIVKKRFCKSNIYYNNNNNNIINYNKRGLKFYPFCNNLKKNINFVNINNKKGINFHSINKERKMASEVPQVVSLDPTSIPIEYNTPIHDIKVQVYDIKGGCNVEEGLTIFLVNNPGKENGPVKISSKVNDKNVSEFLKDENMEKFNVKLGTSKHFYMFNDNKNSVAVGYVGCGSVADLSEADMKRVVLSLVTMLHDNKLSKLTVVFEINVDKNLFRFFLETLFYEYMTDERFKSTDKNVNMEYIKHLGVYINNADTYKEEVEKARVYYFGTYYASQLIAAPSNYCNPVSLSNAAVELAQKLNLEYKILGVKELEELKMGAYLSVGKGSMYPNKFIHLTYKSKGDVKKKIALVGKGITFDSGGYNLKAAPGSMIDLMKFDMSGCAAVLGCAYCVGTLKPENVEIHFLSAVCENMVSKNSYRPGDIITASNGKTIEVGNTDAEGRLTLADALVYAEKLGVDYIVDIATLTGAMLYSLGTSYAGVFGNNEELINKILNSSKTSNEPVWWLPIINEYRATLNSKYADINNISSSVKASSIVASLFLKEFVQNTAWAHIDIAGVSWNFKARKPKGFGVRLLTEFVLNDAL
The experiment in a line: P. falciparum M17LAP inhibitors, primary screen, biochemical, fluorogenic H-Leu-NHMec substrate, 1536-well (AID 1619). Format: functional.

The target in assay [7] is T3, Short transient receptor potential channel 4 (Mus musculus, UniProt Q9QUQ5).
T3 sequence (Q9QUQ5 whole entry): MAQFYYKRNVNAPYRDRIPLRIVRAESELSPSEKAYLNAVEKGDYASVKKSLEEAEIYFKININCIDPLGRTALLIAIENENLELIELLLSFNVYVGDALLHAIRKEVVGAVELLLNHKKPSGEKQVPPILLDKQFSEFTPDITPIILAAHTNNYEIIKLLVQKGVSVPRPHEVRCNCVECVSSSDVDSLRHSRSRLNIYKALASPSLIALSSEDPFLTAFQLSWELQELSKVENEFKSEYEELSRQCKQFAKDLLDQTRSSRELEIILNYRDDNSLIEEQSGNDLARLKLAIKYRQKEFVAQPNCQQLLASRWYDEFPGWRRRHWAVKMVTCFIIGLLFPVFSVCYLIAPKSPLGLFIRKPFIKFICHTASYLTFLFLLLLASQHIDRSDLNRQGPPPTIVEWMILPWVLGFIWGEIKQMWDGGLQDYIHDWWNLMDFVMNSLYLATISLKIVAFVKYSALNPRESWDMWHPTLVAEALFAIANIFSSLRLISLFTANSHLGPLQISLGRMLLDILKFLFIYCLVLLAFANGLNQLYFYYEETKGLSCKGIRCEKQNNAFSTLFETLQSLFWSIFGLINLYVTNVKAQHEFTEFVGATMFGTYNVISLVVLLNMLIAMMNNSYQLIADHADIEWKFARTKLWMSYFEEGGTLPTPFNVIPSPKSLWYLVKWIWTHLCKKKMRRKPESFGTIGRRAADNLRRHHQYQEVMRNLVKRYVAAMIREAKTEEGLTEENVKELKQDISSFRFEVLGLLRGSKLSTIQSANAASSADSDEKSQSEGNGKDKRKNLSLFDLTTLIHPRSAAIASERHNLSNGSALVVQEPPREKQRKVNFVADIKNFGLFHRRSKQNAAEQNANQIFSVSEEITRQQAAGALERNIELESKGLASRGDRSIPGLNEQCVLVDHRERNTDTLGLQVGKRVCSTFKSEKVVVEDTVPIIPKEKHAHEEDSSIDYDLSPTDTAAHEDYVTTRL
Description: mouse TRPC4 channel inhibitors, dose response, cell-based, HEK293 TRPC4/mu-opioid, Fluo-4 calcium (AID 434942).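 Also: potency of inhibitors blocking the TRPC4 calcium response.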 Format: functional.

Assay [8] deals with T4, Corticotropin-releasing factor receptor 2/Corticotropin-releasing factor-binding protein (Homo sapiens, UniProt P24387+Q13324).
T4 sequence (Q13324 whole entry): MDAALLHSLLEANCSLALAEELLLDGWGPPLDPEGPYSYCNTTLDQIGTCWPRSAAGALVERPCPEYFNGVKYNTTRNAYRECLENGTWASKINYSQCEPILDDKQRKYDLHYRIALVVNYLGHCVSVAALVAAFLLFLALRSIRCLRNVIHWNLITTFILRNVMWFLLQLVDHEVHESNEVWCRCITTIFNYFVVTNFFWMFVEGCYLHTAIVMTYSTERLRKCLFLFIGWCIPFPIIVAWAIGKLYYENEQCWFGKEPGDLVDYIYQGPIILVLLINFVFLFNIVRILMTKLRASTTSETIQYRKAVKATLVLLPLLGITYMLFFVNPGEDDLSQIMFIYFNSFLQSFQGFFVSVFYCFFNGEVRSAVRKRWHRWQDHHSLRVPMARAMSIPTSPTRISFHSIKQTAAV
T4 sequence (P24387 whole entry): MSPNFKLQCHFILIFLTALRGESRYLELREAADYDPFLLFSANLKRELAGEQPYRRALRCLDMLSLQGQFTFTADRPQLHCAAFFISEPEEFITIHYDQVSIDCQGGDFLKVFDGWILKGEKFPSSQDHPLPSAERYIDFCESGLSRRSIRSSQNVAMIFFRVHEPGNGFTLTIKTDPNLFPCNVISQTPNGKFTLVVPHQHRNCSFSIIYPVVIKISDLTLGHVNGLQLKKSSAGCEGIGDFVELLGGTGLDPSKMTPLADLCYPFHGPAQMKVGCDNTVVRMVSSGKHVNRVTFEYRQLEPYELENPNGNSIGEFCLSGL
The experiment in a line: activators of CRF receptor 2 with binding protein – uHTS hits, confirmation (AID 602473). Format: functional. Conditions: read-out: EC50_Mean.

Assay [9] deals with T4, Corticotropin-releasing factor receptor 2/Corticotropin-releasing factor-binding protein. The experiment in a line: Dose Response confirmation of uHTS hits for small molecule antagonists of the CRF-binding protein and CRF-R2 receptor complex. Format: functional. The following applies: read-out: IC50_Mean.
Assay [10] addresses T5, Rac GTPase-activating protein 1 (Homo sapiens, UniProt Q9H0H5).
T5 sequence (Q9H0H5 whole entry): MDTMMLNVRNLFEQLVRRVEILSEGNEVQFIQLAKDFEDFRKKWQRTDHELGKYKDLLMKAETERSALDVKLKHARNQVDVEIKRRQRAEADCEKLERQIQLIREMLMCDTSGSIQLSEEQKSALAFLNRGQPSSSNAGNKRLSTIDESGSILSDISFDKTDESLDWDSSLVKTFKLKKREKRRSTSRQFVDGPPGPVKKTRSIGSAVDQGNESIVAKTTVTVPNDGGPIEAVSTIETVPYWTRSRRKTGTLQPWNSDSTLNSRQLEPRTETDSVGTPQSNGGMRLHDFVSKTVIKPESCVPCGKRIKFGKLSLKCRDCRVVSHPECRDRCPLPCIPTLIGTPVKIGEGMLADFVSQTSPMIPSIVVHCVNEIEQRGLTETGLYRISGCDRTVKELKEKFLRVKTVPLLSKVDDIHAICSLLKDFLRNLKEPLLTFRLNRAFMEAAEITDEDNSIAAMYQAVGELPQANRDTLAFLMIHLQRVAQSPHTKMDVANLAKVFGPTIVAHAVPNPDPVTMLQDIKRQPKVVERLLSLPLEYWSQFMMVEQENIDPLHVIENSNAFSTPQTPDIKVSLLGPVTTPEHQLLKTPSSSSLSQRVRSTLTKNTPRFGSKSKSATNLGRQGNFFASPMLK
Description: MgcRacGAP GTPase-activating activity inhibitors, confirmation, biochemical, ADP Hunter fluorescence, primary and confirmatory (AID 624330). Format: functional.

Assay [11] has as its target FAD-linked sulfhydryl oxidase ALR (Homo sapiens, UniProt P55789). The experiment in a line: inhibitors of human ALR sulfhydryl oxidase, dose response, biochemical, H2O2 detection, luminescence, cherry-pick (AID 493248).

For orientation: AC50 means the concentration at which the activity in the assay is half-maximal.

Sequence of FAD-linked sulfhydryl oxidase ALR (P55789 whole entry): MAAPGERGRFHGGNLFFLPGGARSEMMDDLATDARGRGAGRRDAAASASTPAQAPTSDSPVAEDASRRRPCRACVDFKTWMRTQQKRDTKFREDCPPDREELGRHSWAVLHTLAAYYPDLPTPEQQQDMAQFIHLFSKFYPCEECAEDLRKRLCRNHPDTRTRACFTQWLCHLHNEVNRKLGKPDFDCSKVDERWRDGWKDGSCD
Sequence of Genome polyprotein (P29990 2492-3391 limits assumed): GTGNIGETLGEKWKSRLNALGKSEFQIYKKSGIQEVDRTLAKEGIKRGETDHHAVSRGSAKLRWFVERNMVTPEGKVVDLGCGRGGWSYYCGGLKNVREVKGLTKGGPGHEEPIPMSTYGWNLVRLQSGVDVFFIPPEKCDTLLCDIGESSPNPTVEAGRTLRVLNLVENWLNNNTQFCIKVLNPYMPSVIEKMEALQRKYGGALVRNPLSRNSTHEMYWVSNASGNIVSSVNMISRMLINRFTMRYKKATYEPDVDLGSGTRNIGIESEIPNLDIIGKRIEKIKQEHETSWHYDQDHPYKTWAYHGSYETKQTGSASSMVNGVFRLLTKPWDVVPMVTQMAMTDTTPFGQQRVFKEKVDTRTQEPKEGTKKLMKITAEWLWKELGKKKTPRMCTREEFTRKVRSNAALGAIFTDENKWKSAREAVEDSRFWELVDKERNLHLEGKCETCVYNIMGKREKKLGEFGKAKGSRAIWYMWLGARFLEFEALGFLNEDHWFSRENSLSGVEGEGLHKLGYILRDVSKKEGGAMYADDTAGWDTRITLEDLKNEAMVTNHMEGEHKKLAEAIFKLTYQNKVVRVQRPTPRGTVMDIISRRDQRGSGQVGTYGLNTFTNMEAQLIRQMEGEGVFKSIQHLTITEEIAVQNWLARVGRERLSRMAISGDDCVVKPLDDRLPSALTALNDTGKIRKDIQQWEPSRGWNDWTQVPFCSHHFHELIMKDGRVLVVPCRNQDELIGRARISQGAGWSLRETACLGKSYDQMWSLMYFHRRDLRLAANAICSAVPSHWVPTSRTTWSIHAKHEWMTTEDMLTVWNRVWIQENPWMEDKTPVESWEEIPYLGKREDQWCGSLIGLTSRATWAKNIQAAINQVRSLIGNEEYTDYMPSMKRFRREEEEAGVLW
Sequence of Nonstructural protein 1 (Q194T2 whole entry): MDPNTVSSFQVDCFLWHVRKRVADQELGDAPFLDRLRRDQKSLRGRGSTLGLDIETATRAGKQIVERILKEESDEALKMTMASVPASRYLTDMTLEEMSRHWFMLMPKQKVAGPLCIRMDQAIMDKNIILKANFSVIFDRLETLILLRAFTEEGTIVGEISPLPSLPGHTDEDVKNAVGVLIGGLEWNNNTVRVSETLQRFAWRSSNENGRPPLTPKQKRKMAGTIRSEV
Sequence of Induced myeloid leukemia cell differentiation protein Mcl-1 (Q07820 whole entry): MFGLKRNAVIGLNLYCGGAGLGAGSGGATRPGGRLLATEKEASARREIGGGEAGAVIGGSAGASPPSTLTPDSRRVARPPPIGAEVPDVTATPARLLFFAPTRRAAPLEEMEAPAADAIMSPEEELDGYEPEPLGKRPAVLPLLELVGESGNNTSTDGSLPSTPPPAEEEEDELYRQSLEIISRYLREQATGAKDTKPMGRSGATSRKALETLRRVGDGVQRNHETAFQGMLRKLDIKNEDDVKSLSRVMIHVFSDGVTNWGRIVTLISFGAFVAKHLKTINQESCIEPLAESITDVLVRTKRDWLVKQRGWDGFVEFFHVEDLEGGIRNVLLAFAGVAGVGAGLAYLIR

For `CC(=O)Nc1cccc(NC(=O)C2CCCN2C(=O)Nc2ccc(Cl)cc2)c1` (stereo unspecified), the EC50 in assay [1] is > 160 µM (inactive). Also, the IC50 in assay [2] is 84.1 µM (active).
In the case of `COc1ccc(NC(=S)NNc2ccc(S(=O)(=O)Nc3ccccc3C(=O)O)cc2[N+](=O)[O-])cc1`, the IC50 in assay [3] is 15.8 µM (active); in assay [4], 3.37 µM (not active); in assay [5], 31.7 µM (active); in [2], 4.17 µM (active); in [6] it was 4.33 µM (active).
`c1ccc2c(c1)nnn2-c1ncnc2sc3c(c12)CCCC3`: the EC50 in [7] is 6.68 µM (active); in assay [8] it was > 53 µM (inactive). In addition, the IC50 in assay [9] is > 47.1 µM (inactive).
As to `COc1ccccc1CNCc1ccc(OC)c2ccccc12`, the EC50 in assay [7] was 5.31 µM (active).
Consider `O=C(Nc1ccc(O)cc1)c1ccc(C(=O)c2ccccc2)o1`, for which the IC50 in [10] is 19.5 µM (active). For the same compound, the AC50 in assay [11] is 2.25 µM (active).
For `COc1ccccc1N(C(=O)c1snc(C(N)=O)c1N)C(C(=O)NCc1ccccc1)c1ccc(C)o1` (stereo unspecified), in [7], the EC50 is 0.944 µM (active).
With `C/C(=N/NS(=O)(=O)c1ccc(Br)cc1)c1ccc(C)o1`, the AC50 in assay [11] was 15.4 µM (active).
On to `CCC(C)(C)NC(=O)CN(Cc1ccc2c(c1)OCO2)C(=O)CCC(=O)Nc1ccccn1`, for which, in [2], the IC50 was 67 µM (active).
The same measure, in the same setting: under `CC(=O)N1N=C(c2c(-c3ccccc3)c3cc(Br)ccc3[nH]c2=O)CC1c1ccco1` (stereo unspecified) stands 58.8 µM (active).
As for `CC(CN(C)C)CN1c2ccccc2Sc2ccccc21` (stereo unspecified), in assay [11], the AC50 is 1.25 µM (active).
`CCc1cc(C(=O)c2ccc(OC)cc2)c(NC(=O)CC(C)(C)CC(=O)O)s1`: the AC50 in assay [11] is 4.26 µM (active).
As for `CC(NC(=O)c1cccc(N(C)C)c1)c1ccc(-n2ccnc2)cc1` (stereo unspecified), the AC50 in assay [11] is 9.59 µM (active).
On to `CCN(CC)c1ccc(NC(=O)CN2CCN(CC(=O)Nc3ccccc3F)CC2)cc1`, for which the AC50 in assay [11] was 1.18 µM (active).
